The record followed here is patent publication US8002740B2, “Devices for maintaining patency of surgically created channels in tissue” (Broncus Technologies, Inc., priority 2003, dated 2011).

For this series the following is noted: polymer system of polydimethylsiloxane vinyl terminated at various viscosity and a range of platinum-mono, di, tri and/or tetramethyldisiloxane complex.

Source text: The composition for the example may be as follow: polymer part: polydimethylsiloxane, vinyldimethyl terminated, any viscosity; and/or polydimethylsiloxane, vinylmonomethyl terminated, any viscosity. The cross-linker part: polydimethylsiloxane, any viscosity; and or polymonomethylsiloxane, any viscosity. Platinum catalyst part and/or cross-linker part: platinum; and/or platinum-divinyltetramethyldisiloxane complex in xylene, 2-3% Pt; and/or platinum-divinyltetramethyldisiloxane complex in vinyl terminated polydimethylsiloxane, 2-3% Pt; and/or platinum-divinyltetramethyldisiloxane complex in vinyl terminated polydimethylsiloxane, ˜1% Pt; platinum-Cyclovinylmethylsiloxane complex, 2-3% Pt in cyclic vinyl methyl siloxane.
These components may be combined in different ratios to make the polymer. […] The amount of vinyl siloxane cross-linker may determine the rate of the drug release and diffusivity of the polymer to the drug.

With `CC(=O)O[C@H]1C(=O)[C@@]2(C)[C@H]([C@H](OC(=O)c3ccccc3)[C@]3(O)C[C@H](OC(=O)[C@H](O)[C@@H](NC(=O)c4ccccc4)c4ccccc4)C(C)=C1C3(C)C)[C@]1(OC(C)=O)CO[C@@H]1C[C@@H]2O` [paclitaxel], the release profile entry was “acceptable”.
